Here are results for 80 compounds from the METLIN SMRT retention time set (Domingo-Almenara et al. 2019).

This series in a line: gradient 5% acetonitrile 3 min, to 50% in 2 min, to 85% in 15 min, held 3 min, 100 µL/min. Particulars: column: Zorbax Extend-C18 2.1 x 50 mm; eluents: water / acetonitrile, 0.1% formic acid. The method in brief: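 Pure standards were analyzed in mixtures of ~100 molecules using HPLC coupled to a quadrupole time-of-flight mass spectrometer, in both positive and negative ionization mode. Separation used a Zorbax Extend-C18 column (2.1 × 50 mm, 1.8 μm) at 100 μL/min, with water and acetonitrile each containing 0.1% formic acid. Dead and dwell volumes were 40 μL and 900 μL, and data were collected over 3 months. Retention time was read from computationally picked adduct peaks, each inspected manually.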
Regarding `O=C(CSc1ccncc1)NCc1cc(-c2ccco2)on1`, the RP-LC retention time was found to be 552 s.
`O=C(CC(SCCO)c1ccc([N+](=O)[O-])cc1)c1ccco1` (stereo not given) had an RP-LC retention time of 715 s.
In turn, `COc1cc(NC(=O)N2CCc3cn(C)c4cccc(c34)C2)cc(OC)c1OC` yielded an RP-LC retention time of 801 s.
For the compound `O=C(CN1C(=O)S/C(=C\c2ccccc2)C1=O)NCCN1C(=O)CSC1=O`, the RP-LC retention time amounted to 746 s.
For `Cc1ccc(-c2ccc(N3CCCC(C(=O)N4CCC(C)CC4)C3)nn2)cc1C` (stereo not given) the value was 792 s; for `Cc1oc2c(c1C(=O)Nc1ccc(F)c(F)c1)C1=NCCN1C=N2`, 643 s; for `COc1ccc(CNC(=O)C2CCN(S(C)(=O)=O)c3cc(C)ccc3O2)cc1` (stereo not given), 830 s.
`CCc1ccc(NS(=O)(=O)c2ccc3c(c2)C(=O)N(C)c2ncccc2O3)cc1` gave an RP-LC retention time of 1010 s.
For `CCOc1ccc(S(=O)(=O)N2CCCC2C(=O)Nc2nnc(CC)s2)cc1` (stereo not given) the value was 805 s; for `O=C(Nc1ccc(Cl)cc1)N1CCC(n2cnc3cc(F)ccc3c2=O)CC1`, 848 s.
For `Cc1ccc(-c2cc3c4nnc(SCC(=O)NCCc5ccccc5)n4ccn3n2)cc1C` the value was 954 s.
For the compound `Cc1[nH]c(C(=O)N2CCC(CC(=O)N3CCC(C)CC3)CC2)c(C)c1C(=O)OC(C)C`, the RP-LC retention time was 849 s.
For `COc1ccc(-c2csc(NC(=O)CSc3nc4c(cc3C#N)CCC4)n2)cc1` the value was 1120 s; for `CCc1noc(NC(C)=O)c1-c1ccc(C)c(S(=O)(=O)Nc2ccc(Cl)cc2F)c1`, 866 s; for `CCc1cc(=O)n(CC(=O)N(C)c2ccccc2)c(N2CCOCC2)n1`, 674 s.
In the case of `O=C(Cn1cnc2c(-c3ccc(F)cc3)csc2c1=O)N1CCCC1` it was 783 s; in that of `CCN(Cc1ccncc1)C1CN(C(=O)c2ccc3ncccc3c2)C1`, 560 s; in that of `O=C(NCCC1=CCCCC1)c1cccn1-c1cccnc1`, 810 s.
For `CC(C)C(=O)NCc1csc(C2CCCN(C(=O)CC3CCCCC3)C2)n1` (stereo not given) the value was 816 s.
`CCCCN1CCC(CCC(=O)c2cc(Cl)c(N)cc2OC)CC1` returned an RP-LC retention time of 726 s.
With `COCc1cc(=O)n2c(n1)N(Cc1c(C)noc1C)CC2`, the RP-LC retention time was 626 s.
`O=C(c1cc(-c2ccc3c(c2)OCO3)nc2ccccc12)N1CCN(c2ccccn2)CC1` came in with an RP-LC retention time of 674 s.
`CCNS(=O)(=O)c1cccnc1Nc1ccc(Cl)c(C)c1` gave an RP-LC retention time of 1100 s.
For `Cc1ccc(Cn2cc(-c3ccncc3)cc2C(=O)NCc2cccnc2)cc1` the value was 581 s; for `Cc1ccc(NC(=O)Cn2cc3c(n2)CCC(C)C3)cc1C` (stereo not given), 969 s.
In turn, `CCOC(=O)Cn1c(C2CC(=O)N(Cc3ccc(F)cc3)C2)nc2ccccc21` (stereo not given) returned an RP-LC retention time of 764 s.
In the case of `CCCn1nc2ccc(S(=O)(=O)N3CCC(C)CC3)cn2c1=O` it was 893 s.
For `CCOc1ccc(C2C(C(=O)N3CCCCC3)=C(C)NC3=C2C(=O)CCC3)cc1OC` (stereo not given) the value was 674 s.
For the compound `COc1cccc(-c2cc3c(=O)n(Cc4nc(-c5ccccc5)no4)ccn3n2)c1`, the RP-LC retention time worked out at 1000 s.
In the case of `COc1ccc(C2(C(=O)N3CCCC(CN4CCCC4)CC3)CC2)cc1` (stereo not given) it was 618 s; in that of `Cc1sc2cc(C(=O)NCC3CC3)[nH]c2c1CN1CCCCC1`, 634 s.
In the case of `Cc1c(CC(=O)N2CCC(C(N)=O)CC2)c(=O)oc2cc3oc4c(c3cc12)CCCC4` it was 764 s; in that of `Cc1cc2c(c(=O)n(-c3ccc(F)cc3)c(=O)n2CC(=O)Nc2cccc(Cl)c2)n1C`, 887 s; in that of `Cc1ccn2c(NC(=O)c3cccc(C(F)(F)F)c3)c(-c3ccccc3)nc2c1`, 736 s.
`O=C(c1ccc(F)cc1F)N1CCc2nc(-c3ccc(Cl)cc3)ncc2C1`: the RP-LC retention time came to 1060 s.
In the case of `CC1=NS(=O)(=O)c2cccnc2N1c1cccc(Br)c1` it was 825 s; in that of `CCOc1ccc(NC(=O)c2cnc(N3CCN(C4CCCCC4)CC3)nc2N)cc1`, 662 s; in that of `O=S(=O)(Nc1ccc(Cn2cncn2)cc1)c1ccccc1Br`, 708 s.
For `CCOC(=O)c1noc2ncnc(Nc3ccc(C)cc3C)c12` the value was 1030 s; for `O=C(c1n[nH]c2ccccc12)N1CCCC1c1nc(-c2ccc(F)cc2F)no1` (stereo not given), 930 s.
In turn, `O=C(Nc1cccc(Cl)c1)C1CCCN(c2nc3ccsc3c(=O)n2Cc2ccc(F)cc2)C1` (stereo not given) came in with an RP-LC retention time of 1110 s.
`Cc1cccc(NC(=O)C2CCCN(c3ncnc4onc(-c5ccc(F)cc5)c34)C2)n1` (stereo not given) had an RP-LC retention time of 849 s.
In the case of `CN(CCNC(=O)c1c2c(cn(-c3ccccc3)c1=O)C(=O)CC(C)(C)C2)C1CCCCC1` it was 720 s; in that of `CSc1ncc2ncn(C3OC(CO)C(O)C3O)c2n1` (stereo not given), 623 s; in that of `CN1CCN(C(=O)CN2C(=O)CCCc3cc(S(=O)(=O)N4CCCCCC4)ccc32)CC1`, 632 s.
For `CN(C)C(=O)c1cc2c(s1)CCC(C(=O)NCCc1cccnc1)C2` (stereo not given) the value was 543 s.
The compound `COc1cc(N)c(Cl)cc1C(=O)OCCN1CCCCC1` displayed an RP-LC retention time of 629 s.
Compound `CCn1c(CCNC(=O)c2ccc(OC)cc2)nc2cccnc21` yielded an RP-LC retention time of 607 s.
For `O=C(NCc1c(F)cccc1F)C(=O)NCc1n[nH]c(=O)c2ccccc12`, the RP-LC retention time turned out to be 695 s.
In the case of `CC(C)N1CCN(C(=O)c2ccc(-c3cccs3)nc2)CC1` it was 588 s; in that of `Fc1ccccc1CN1CCCN(c2ncccc2-c2nc(C3CC3)no2)CC1`, 675 s.
For `CCc1nn(CC(=O)NCCc2c[nH]c3ccccc23)c(=O)c2cc3sccc3n12` the value was 842 s; for `Cn1c(C(=O)NCc2ccc(F)cc2)cc2sccc21`, 663 s.
In the case of `COc1ccc(CCC(=O)N2CCN(S(=O)(=O)c3cc4c5c(c3)CCC(=O)N5CCC4)CC2)cc1` it was 768 s; in that of `O=C(NC1CCCCC1)C1CCCN(C(=O)c2cccc(Cl)c2)C1` (stereo not given), 864 s.
Regarding `CCCCN1C(=O)CN(S(=O)(=O)c2ccccc2)CC1(C)C(=O)NCc1ccc(F)cc1` (stereo not given), the RP-LC retention time amounted to 945 s.
`COc1cc(OC)c(NC(=O)N2CCc3nc[nH]c3C2)cc1Cl` returned an RP-LC retention time of 583 s.
`CCN1CCN(C(=O)C2CCc3sc(C(=O)N4CCCC4)cc3C2)CC1` (stereo not given) came in with an RP-LC retention time of 580 s.
In the case of `Cc1cc(N2CCC(C)CC2)n2ncnc2n1` it was 790 s; in that of `Cc1c(C(=O)Nc2c3c(nn2C(C)(C)C)CSC3)cccc1[N+](=O)[O-]`, 814 s; in that of `CCN1c2ccc(F)cc2C(=O)NC12CCN(C(=O)c1cccc(OC)c1)CC2`, 786 s.
For `CCOC(=O)c1ccc(Nc2c(-c3cccc(Br)c3)nc3cnccn23)cc1` the value was 986 s.
For `CCC(=O)N1CCc2cc(N3CC(C(=O)N4CCC5(CC4)OCCO5)CC3=O)ccc21` (stereo not given) the value was 654 s; for `Cc1ccc2oc(C(=O)NCc3ccc4c(c3)OCO4)cc2n1`, 635 s; for `CCS(=O)(=O)N1CC(=O)N(c2ccc(C)cc2C)C(C)(C(=O)NC2CCCCCC2)C1` (stereo not given), 1000 s.
Regarding `CC(C)CCNC(=O)c1cn(C)nc1S(=O)(=O)N1CCSCC1`, the RP-LC retention time came out at 900 s.
In turn, `CC(C(=O)Nc1ccc(Cl)cc1F)C1CCN(C(=O)Nc2ccc(Cl)cc2)CC1` (stereo not given) came in with an RP-LC retention time of 1020 s.
Compound `COc1ccc(CNC(=O)NCCc2nc3cccnc3n2Cc2ccccc2)cc1` returned an RP-LC retention time of 710 s.
The compound `CCc1onc(C)c1C1CCCN1C(=O)NCc1ccc(F)cc1` (stereo not given) gave an RP-LC retention time of 766 s.
For `Cc1ccc(Cl)cc1NC(=O)NCC1CCOCC1` the value was 750 s; for `Cc1ccc(NC(=O)CC(=O)Nc2ccc3nc4n(c(=O)c3c2)CCCCC4)cc1F`, 750 s; for `O=C1CCN(C(=O)C2(c3ccccc3)CC2)CCCCCCN1`, 721 s.
Regarding `CCN1C(=O)c2cc(S(=O)(=O)Nc3cc(C)ccc3F)ccc2Oc2cccnc21`, the RP-LC retention time stood at 1030 s.
Take `CCOc1ccc(-c2csc(Cc3nc(-c4ccc(F)cc4)no3)n2)cc1`: the RP-LC retention time turned out to be 1250 s.
For the compound `CC1CCN(c2nc(NCCN3CCOCC3)nc(N3CC4CC(C3)c3cccc(=O)n3C4)n2)CC1` (stereo not given), the RP-LC retention time was found to be 555 s.
For `O=C(NCC(c1ccc2c(c1)OCO2)N1CCN(c2ccc(F)cc2)CC1)C1CC1` (stereo not given) the value was 682 s; for `CC(COc1ccccc1Cc1ccccc1)N1CCCCC1` (stereo not given), 852 s; for `COc1ccc(C)cc1NC(=O)N1CCC(CC(=O)N2CCCCC2)CC1`, 811 s.
As for `Cc1nc(-c2cn(C(C)C)c3ncccc23)sc1C(=O)Nc1ccc2c(c1)OCCO2`, the RP-LC retention time was determined as 1010 s.
As for `COc1ccc(OC)c(S(=O)(=O)N2C[C@@H](F)C[C@H]2C(=O)N2CCc3ccccc3C2)c1`, the RP-LC retention time was 829 s.
